PubChem BioAssay (NCI)
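Exposure lasted 48 hours, with cells grown in 96-well plates and compounds tested at five concentrations. Abbreviation: GI50, concentration required for 50% inhibition of growth. TGI is the concentration that stops growth completely.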

Assays:
Assay in all cases: NCI tumour cell line growth inhibition, 48 h
[1] = test system: DU-145 prostate
[2] = test system: HS 578T breast
[3] = test system: M14 melanoma
[4] = test system: NCI/ADR-RES ovarian
[5] = test system: PC-3 prostate
[6] = test system: T-47D breast
[7] = test system: DMS 114 small cell lung
[8] = test system: LXFL 529 NSCLC
[9] = test system: HOP-18 NSCLC
[10] = test system: SNB-78 CNS

## C[C@]12CC[C@H]3[C@@H](CC=C4C[C@@H](O)CC[C@@]43C)[C@@H]1CC[C@@H]2N(CCO)CCO
[1]
  TGI: > 100 µM
[2]
  TGI: > 100 µM
[3]
  TGI: > 100 µM
[4]
  TGI: > 100 µM
[5]
  TGI: > 100 µM
[6]
  TGI: > 100 µM

## N#Cc1ccc(NC(=O)Nc2ccc(Oc3ccc(NC(=O)Nc4ccc(C#N)cc4)cc3)cc2)cc1
[1]
  GI50: 31.2 µM
  TGI: > 100 µM
[2]
  GI50: 7.49 µM
  TGI: > 100 µM
[3]
  GI50: 28.3 µM
  TGI: > 100 µM
[4]
  GI50: 13 µM
  TGI: > 100 µM
[5]
  GI50: 25.6 µM
  TGI: > 100 µM
[6]
  GI50: 0.622 µM
  TGI: 31.6 µM

## C/C(CC(=O)Nc1cc(Cl)c(Cl)cc1Cl)=N\NC(N)=O
[7]
  TGI: > 100 µM
[8]
  TGI: > 100 µM
[3]
  TGI: > 100 µM

## Cc1ccc2c(c1)[n+]([O-])c(N)n[n+]2[O-]
[1]
  TGI: > 100 µM
[2]
  TGI: > 100 µM
[3]
  TGI: > 100 µM
[4]
  TGI: > 100 µM
[5]
  TGI: > 100 µM
[6]
  TGI: > 100 µM

## CCCn1cnc2c(SCc3ccccc3Cl)nc(N)nc21
[1]
  GI50: 15.5 µM
  TGI: 45.6 µM
[2]
  GI50: 40.4 µM
  TGI: > 100 µM
[3]
  GI50: 17.6 µM
  TGI: 61.9 µM
[4]
  GI50: 14.8 µM
  TGI: 64.1 µM
[5]
  GI50: 6.49 µM
  TGI: 37.5 µM
[6]
  GI50: 22 µM
  TGI: 80.8 µM

## O/N=C/C1c2ccccc2-c2ccccc21
[1]
  TGI: 45.9 µM
[2]
  TGI: 47.6 µM
[3]
  TGI: 32.7 µM
[4]
  TGI: 33.8 µM
[5]
  TGI: 36.9 µM
[6]
  TGI: 56.3 µM

## O=C1O[C@@H](c2ccc3c(c2)OCO3)C2C(=O)O[C@@H](c3ccc4c(c3)OCO4)C12 (some centres undefined)
[7]
  TGI: > 100 µM
[9]
  TGI: > 100 µM
[3]
  TGI: > 100 µM
[10]
  TGI: > 100 µM

## CCOC(=O)C1=C(OC(OCC)C(CC)[Se]c2ccccc2)CCCC1 (centres undefined)
[9]
  TGI: 86.4 µM
[8]
  TGI: 91.8 µM
[3]
  TGI: 34.2 µM
[10]
  TGI: > 100 µM

## COc1ccc(-c2cnnc3c(-c4cccc(C(F)(F)F)c4)cnn23)cc1
[1]
  GI50: 3.97 µM
  TGI: > 100 µM
[2]
  GI50: 4.11 µM
  TGI: > 100 µM
[3]
  GI50: > 100 µM
  TGI: > 100 µM
[4]
  GI50: 3.05 µM
  TGI: > 100 µM
[5]
  GI50: 6.22 µM
  TGI: > 100 µM
[6]
  GI50: 6.37 µM
  TGI: > 100 µM

## COc1cc(C2=NOC(c3cc(OC)c(OC)c(OC)c3)C2)ccc1OCCCCOc1cc2c(cc1OC)C(=O)N1CCC[C@H]1C=N2 (some centres undefined)
[1]
  GI50: 0.432 µM
  TGI: 3.28 µM
[2]
  GI50: 0.234 µM
  TGI: 0.681 µM
[3]
  GI50: 0.206 µM
  TGI: 0.432 µM
[4]
  GI50: 2.82 µM
  TGI: 9.35 µM
[5]
  GI50: 0.347 µM
  TGI: 3.1 µM
[6]
  GI50: 0.481 µM

## O=C(N/N=C/c1ccccc1O)c1ccccc1Nc1ccnc(C(F)(F)F)c1
[1]
  GI50: 0.478 µM
  TGI: > 48.7 µM
[2]
  GI50: 12.9 µM
  TGI: > 100 µM
[3]
  GI50: 0.497 µM
  TGI: 3.76 µM
[4]
  GI50: 0.433 µM
  TGI: 30.1 µM
[5]
  GI50: 0.295 µM
  TGI: 10.1 µM
[6]
  GI50: 1.07 µM
  TGI: > 78.4 µM

## CC[C@@H]1CN(C)[C@H]2Cc3c([nH]c4ccccc34)C(=O)C[C@H]1C2C(=O)OC (some centres undefined)
[1]
  TGI: > 100 µM
[2]
  TGI: > 100 µM
[3]
  TGI: > 100 µM
[4]
  TGI: > 100 µM
[5]
  TGI: > 100 µM
[6]
  TGI: > 100 µM

## Oc1ccc(CN2CCC(N3CCCCC3)CC2)c2cccnc12
[1]
  GI50: 6.64 µM
  TGI: > 100 µM
[2]
  GI50: 17.6 µM
  TGI: > 100 µM
[3]
  GI50: 5.75 µM
  TGI: > 100 µM
[4]
  GI50: 24.2 µM
  TGI: > 100 µM
[5]
  GI50: 7.15 µM
  TGI: > 100 µM
[6]
  GI50: 23.6 µM
  TGI: > 100 µM

## CCOc1cc2c(Cl)ncnc2c(OCC)c1OCC
[1]
  GI50: 1.75 µM
  TGI: 3.14 µM
[2]
  GI50: 2.07 µM
  TGI: 5.45 µM
[3]
  GI50: 6.24 µM
  TGI: 20.1 µM
[4]
  GI50: 25.6 µM
  TGI: > 64.3 µM
[5]
  GI50: 3.2 µM
  TGI: 11.4 µM
[6]
  GI50: 6.11 µM
  TGI: 22.8 µM

## CC(=O)CNC(=O)OC(C)(C)C
[7]
  TGI: > 100 µM
[3]
  TGI: > 100 µM
[10]
  TGI: > 100 µM

## CCN(CC)c1ccc(/C=C/c2ccc3cc(C)ccc3[n+]2CC)cc1
[1]
  GI50: 0.0942 µM
  TGI: 12.7 µM
[2]
  GI50: 1.01 µM
  TGI: 69 µM
[3]
  GI50: 0.182 µM
  TGI: 1.63 µM
[4]
  GI50: 5.69 µM
  TGI: 47.4 µM
[5]
  GI50: 0.0664 µM
  TGI: 6.17 µM
[6]
  GI50: 0.0182 µM
  TGI: 1.41 µM

## FC(F)(F)c1cccc(Nc2nccc(-c3cnn4nc(-c5ccccc5)ccc34)n2)c1
[1]
  GI50: 7.1 µM
  TGI: > 17.4 µM
[2]
  GI50: 7.38 µM
  TGI: > 20.3 µM
[3]
  GI50: 12 µM
  TGI: 24.5 µM
[4]
  GI50: 8.37 µM
  TGI: > 21.7 µM
[5]
  GI50: 8.48 µM
  TGI: > 20.8 µM
[6]
  GI50: 8.33 µM
  TGI: > 25 µM

## N#Cc1cc([N+](=O)[O-])ccc1NC(=O)C(=O)Nc1n[nH]c(N)n1
[7]
  TGI: > 100 µM
[8]
  TGI: > 100 µM
[3]
  TGI: > 100 µM
[10]
  TGI: > 100 µM

## COC(=O)[C@]12CC[C@@H](C)[C@H](C)[C@@H]1C1=CC[C@@H]3[C@@]4(C)C/C(=N\O)[C@H](O)[C@@]5(C)COC(=C45)C[C@@]3(C)[C@]1(C)CC2
[1]
  GI50: 8.57 µM
  TGI: 22.8 µM
[2]
  GI50: 11.4 µM
  TGI: 32.5 µM
[3]
  GI50: 14.2 µM
  TGI: 27.7 µM
[4]
  GI50: 2.61 µM
  TGI: 7.88 µM
[5]
  GI50: 2.34 µM
  TGI: 6.51 µM
[6]
  GI50: 9.3 µM
  TGI: 25.7 µM

## COc1cc(C2NC(=O)c3ccccc3N2)ccc1OCCCCCOc1c(OC)cc(C2=NOC(c3cc(OC)c(OC)c(OC)c3)C2)cc1OC (centres undefined)
[1]
  GI50: 22.5 µM
  TGI: > 82.7 µM
[2]
  GI50: 15.7 µM
  TGI: > 82 µM
[3]
  GI50: 20.4 µM
  TGI: > 93 µM
[4]
  GI50: 12.7 µM
  TGI: > 51.8 µM
[5]
  GI50: 4.62 µM
  TGI: > 66.5 µM
[6]
  GI50: 0.239 µM
  TGI: > 100 µM

## CSC(C1c2ccccc2N(c2ccc(C)cc2)C2=NC(=O)N(C)C(=O)C21Cl)S(=O)(=O)c1ccc(C)cc1 (centres undefined)
[7]
  TGI: 49.8 µM
[8]
  TGI: 42.1 µM
[3]
  TGI: 72.3 µM
[10]
  TGI: 80.1 µM

## O=C1Nc2c(C(F)(F)F)cccc2[C@]1(c1ccc(O)cc1)c1ccc(OC(F)(F)F)cc1
[1]
  GI50: 11.7 µM
  TGI: 23.9 µM
[2]
  GI50: 1.44 µM
  TGI: 5.89 µM
[3]
  GI50: 14.2 µM
  TGI: 29.2 µM
[4]
  GI50: 8.78 µM
  TGI: 25.8 µM
[5]
  GI50: 4.31 µM
  TGI: 21.3 µM
[6]
  GI50: 1.18 µM
  TGI: 17.9 µM
